Test results: US9920010B2, “CXCR7 receptor modulators” (IDORSIA PHARMACEUTICALS LTD, priority 2013, dated 2018)

What follows are molecules tested against T1, CXCR7 (Homo sapiens, UniProt P25106) (assay: PathHunter CHO-K1 CXCR7 b-arrestin recruitment assay (CXCR7 agonistic activity)). Conditions: PathHunter CHO-K1 CXCR7 b-arrestin cell line.
T1 construct: host or cells: CHO-K1 (PathHunter CHO-K1 CXCR7 b-arrestin cell line, stably transfected)
Format: cell-based
Method in brief: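 Stable CHO-K1 line with C-terminally ProLink-tagged CXCR7 and β-arrestin 2–EA fusion; β-arrestin recruitment restores β-gal activity, read by chemiluminescence after 1 h RT detection. Cells seeded 24 h, starved in OPTIMEM 3–4 h, exposed to compounds 90 min at 37 °C in HBSS/HEPES/BSA. Geometric-mean EC50 from repeated measurements.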

T1 sequence (P25106 whole entry): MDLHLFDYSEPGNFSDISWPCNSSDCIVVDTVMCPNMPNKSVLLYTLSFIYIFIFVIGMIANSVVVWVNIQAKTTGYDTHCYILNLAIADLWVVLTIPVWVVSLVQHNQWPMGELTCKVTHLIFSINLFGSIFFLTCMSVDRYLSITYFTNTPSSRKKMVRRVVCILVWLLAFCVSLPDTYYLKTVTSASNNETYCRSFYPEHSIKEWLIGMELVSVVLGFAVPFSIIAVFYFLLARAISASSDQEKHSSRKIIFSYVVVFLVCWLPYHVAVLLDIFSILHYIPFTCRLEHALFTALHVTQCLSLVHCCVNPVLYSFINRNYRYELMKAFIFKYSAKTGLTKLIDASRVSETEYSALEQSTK
T1 sequence (P32121 whole entry partner): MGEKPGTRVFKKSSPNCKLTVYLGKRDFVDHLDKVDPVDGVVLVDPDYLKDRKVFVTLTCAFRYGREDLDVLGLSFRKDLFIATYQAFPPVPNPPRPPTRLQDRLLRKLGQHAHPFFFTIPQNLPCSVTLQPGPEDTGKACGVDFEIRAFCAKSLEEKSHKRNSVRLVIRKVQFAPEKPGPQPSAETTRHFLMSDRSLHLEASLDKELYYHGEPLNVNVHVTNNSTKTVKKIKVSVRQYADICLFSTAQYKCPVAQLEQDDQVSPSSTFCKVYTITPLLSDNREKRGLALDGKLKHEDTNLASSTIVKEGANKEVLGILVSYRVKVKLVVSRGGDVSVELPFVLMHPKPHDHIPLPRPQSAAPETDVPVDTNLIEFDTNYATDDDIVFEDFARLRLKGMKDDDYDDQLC

EC50 [nM] | Structure (SMILES)
1 | CN(CCN(Cc1ccccc1C(F)(F)F)C(=O)CNc1cccc2c1CCN(CC1CC1)C2)C1CCC1 [Example 447, N-[2-(Cyclobutyl-methyl-amino)-ethyl]-2-(2-cyclopropylmethyl-1,2,3,4-tetrahydro-isoquinolin-5-ylamino)-N-(2-trifluoromethyl-benzyl)-acetamide]
34 | CN(C)CCN(Cc1ccccc1C(F)(F)F)C(=O)CNc1cccc2c1CN(S(C)(=O)=O)CC2 [Example 544, N-(2-Dimethylamino-ethyl)-2-(2-methanesulfonyl-1,2,3,4-tetrahydro-isoquinolin-8-ylamino)-N-(2-trifluoromethyl-benzyl)-acetamide]
8 | CN(C)CCN(Cc1ccccc1C(F)(F)F)C(=O)CNc1cccc2c1CN(C(=O)N(C)C)CC2 [Example 546, 8-({[(2-Dimethylamino-ethyl)-(2-trifluoromethyl-benzyl)-carbamoyl]-methyl}-amino)-3,4-dihydro-1H-isoquinoline-2-carboxylic acid dimethylamide]
15 | CNC(=O)N1CCc2cccc(NCC(=O)N(CCN(C)C)Cc3ccccc3C(F)(F)F)c2C1 [Example 547, 8-({[(2-Dimethylamino-ethyl)-(2-trifluoromethyl-benzyl)-carbamoyl]-methyl}-amino)-3,4-dihydro-1H-isoquinoline-2-carboxylic acid methylamide]
59 | CN(C)CCN(Cc1ccccc1C(F)(F)F)C(=O)CNc1cccc2c1CN(CC(F)(F)F)CC2 [Example 558, N-(2-Dimethylamino-ethyl)-2-[2-(2,2,2-trifluoro-ethyl)-1,2,3,4-tetrahydro-isoquinolin-8-ylamino]-N-(2-trifluoromethyl-benzyl)-acetamide]
29 | CN(C)CCN(Cc1ccccc1C(F)(F)F)C(=O)NCc1cccc2c1CCN(CC1CC1)C2 [Example 568, 3-(2-Cyclopropylmethyl-1,2,3,4-tetrahydro-isoquinolin-5-ylmethyl)-1-(2-dimethylamino-ethyl)-1-(2-trifluoromethyl-benzyl)-urea]
26 | CN(C)CCN(Cc1ccccc1C(F)(F)F)C(=O)NCc1cccc2c1CN(CC1CC1)CC2 [Example 569, 3-(2-Cyclopropylmethyl-1,2,3,4-tetrahydro-isoquinolin-8-ylmethyl)-1-(2-dimethylamino-ethyl)-1-(2-trifluoromethyl-benzyl)-urea]
86 | CN(C)CCN(Cc1ccccc1C(F)(F)F)C(=O)CNc1cccc2c1CCN(C(=O)C1(C(F)(F)F)CC1)C2 [Example 571, N-(2-Dimethylamino-ethyl)-N-(2-trifluoromethyl-benzyl)-2-[2-(1-trifluoromethyl-cyclopropanecarbonyl)-1,2,3,4-tetrahydro-isoquinolin-5-ylamino]-acetamide]
5 | CN(C)CCN(Cc1ccccc1C(F)(F)F)C(=O)CNc1cccc2c1CCN(C(=O)c1ccco1)C2 [Example 572, N-(2-Dimethylamino-ethyl)-2-[2-(furan-2-carbonyl)-1,2,3,4-tetrahydro-isoquinolin-5-ylamino]-N-(2-trifluoromethyl-benzyl)-acetamide]
3 | CCCN1CCc2c(cccc2NCC(=O)N(CCN(C)C)Cc2ccccc2C(F)(F)F)C1 [Example 573, N-(2-Dimethylamino-ethyl)-2-(2-propyl-1,2,3,4-tetrahydro-isoquinolin-5-ylamino)-N-(2-trifluoromethyl-benzyl)-acetamide]
6 | CN(C)CCN(Cc1ccccc1C(F)(F)F)C(=O)CNc1cccc2c1CCN(CCCF)C2 [Example 574, N-(2-Dimethylamino-ethyl)-2-[2-(3-fluoro-propyl)-1,2,3,4-tetrahydro-isoquinolin-5-ylamino]-N-(2-trifluoromethyl-benzyl)-acetamide]
100 | CN(C)CCN(Cc1ccccc1)C(=O)CNc1cccc2c1CCN(C)C2 [compound 106]
43 | CCN1CCc2c(cccc2NCC(=O)N(CCN(C)C)Cc2ccccc2)C1 [compound 107, N-Benzyl-N-(2-dimethylamino-ethyl)-2-(2-ethyl-1,2,3,4-tetrahydro-isoquinolin-5-ylamino)-acetamide]
14 | CN(C)CCN(Cc1ccccc1)C(=O)CNc1cccc2c1CCN(CC1CC1)C2 [compound 110, N-Benzyl-2-(2-cyclopropylmethyl-1,2,3,4-tetrahydro-isoquinolin-5-ylamino)-N-(2-dimethylamino-ethyl)-acetamide]
40 | CC(C)CN1CCc2c(cccc2NCC(=O)N(CCN(C)C)Cc2ccccc2)C1 [compound 112, N-Benzyl-N-(2-dimethylamino-ethyl)-2-(2-isobutyl-1,2,3,4-tetrahydro-isoquinolin-5-ylamino)-acetamide]
52 | CN(C)CCN(Cc1ccccc1)C(=O)CNc1cccc2c1CCN(CC1CCCCC1)C2 [compound 124]
130 | CC(C)CCN(Cc1ccccc1)C(=O)CNc1cccc2c1CCN(C)C2 [compound 132]
20 | CCN1CCc2c(cccc2NCC(=O)N(CCN(C)C)Cc2ccccc2Cl)C1 [compound 133, N-(2-Chloro-benzyl)-N-(2-dimethylamino-ethyl)-2-(2-ethyl-1,2,3,4-tetrahydro-isoquinolin-5-ylamino)-acetamide]
2 | CN(C)CCN(Cc1ccccc1Cl)C(=O)CNc1cccc2c1CCN(CC1CC1)C2 [compound 134, N-(2-Chloro-benzyl)-2-(2-cyclopropylmethyl-1,2,3,4-tetrahydro-isoquinolin-5-ylamino)-N-(2-dimethylamino-ethyl)-acetamide]
9 | CCN1CCc2c(cccc2NCC(=O)N(CCN(C)C)Cc2ccccc2C(F)(F)F)C1 [compound 135, N-(2-Dimethylamino-ethyl)-2-(2-ethyl-1,2,3,4-tetrahydro-isoquinolin-5-ylamino)-N-(2-trifluoromethyl-benzyl)-acetamide]
45 | CCN1CCc2c(cccc2NCC(=O)N(Cc2ccccc2C(F)(F)F)C2CCN(C)CC2)C1 [compound 137, 2-(2-Ethyl-1,2,3,4-tetrahydro-isoquinolin-5-ylamino)-N-(1-methyl-piperidin-4-yl)-N-(2-trifluoromethyl-benzyl)-acetamide]

The remaining lines, values behind:

Structure (SMILES) | EC50 [nM]
CN(C)CCN(Cc1ncccc1Br)C(=O)CNc1cccc2c1C(C)(C)CN(CC1CC1)C2 [Example 575, N-(3-Bromo-pyridin-2-ylmethyl)-2-(2-cyclopropylmethyl-4,4-dimethyl-1,2,3,4-tetrahydro-isoquinolin-5-ylamino)-N-(2-dimethylamino-ethyl)-acetamide] | 0.9
CC(C)(O)CN(Cc1ncccc1Br)C(=O)CNc1cccc2c1C(C)(C)CN(CC1CC1)C2 [Example 576, N-(3-Bromo-pyridin-2-ylmethyl)-2-(2-cyclopropylmethyl-4,4-dimethyl-1,2,3,4-tetrahydro-isoquinolin-5-ylamino)-N-(2-hydroxy-2-methyl-propyl)-acetamide] | 6
CN(C)CCN(Cc1ccccc1Cl)C(=O)CNc1cccc2c1C(C)(C)CN(CC1CC1)C2 [Example 577, N-(2-Chloro-benzyl)-2-(2-cyclopropylmethyl-4,4-dimethyl-1,2,3,4-tetrahydro-isoquinolin-5-ylamino)-N-(2-dimethylamino-ethyl)-acetamide] | 0.9
CC(C)N1CCc2c(cccc2NCC(=O)N(CCN(C)C)Cc2ccccc2)C1 [compound 109] | 73
CCC(=O)N1CCc2c(cccc2NCC(=O)N(CCN(C)C)Cc2ccccc2)C1 [compound 111, N-Benzyl-N-(2-dimethylamino-ethyl)-2-(2-propionyl-1,2,3,4-tetrahydro-isoquinolin-5-ylamino)-acetamide] | 32
CCCC(=O)N1CCc2c(cccc2NCC(=O)N(CCN(C)C)Cc2ccccc2)C1 [compound 114, N-Benzyl-2-(2-butyryl-1,2,3,4-tetrahydro-isoquinolin-5-ylamino)-N-(2-dimethylamino-ethyl)-acetamide] | 36
CC(C)C(=O)N1CCc2c(cccc2NCC(=O)N(CCN(C)C)Cc2ccccc2)C1 [compound 115] | 54
CN(C)CCN(Cc1ccccc1)C(=O)CNc1cccc2c1CCN(CC(C)(C)C)C2 [compound 116] | 96
CCOC(=O)N1CCc2c(cccc2NCC(=O)N(CCN(C)C)Cc2ccccc2)C1 [compound 117] | 79
CN(C)CCN(Cc1ccccc1)C(=O)CNc1cccc2c1CCN(Cc1ccco1)C2 [compound 118] | 126
CC(C)CC(=O)N1CCc2c(cccc2NCC(=O)N(CCN(C)C)Cc2ccccc2)C1 [compound 119] | 87
CN(C)CCN(Cc1ccccc1)C(=O)CNc1cccc2c1CCN(CCC(C)(C)C)C2 [compound 120] | 154
CC(C)OC(=O)N1CCc2c(cccc2NCC(=O)N(CCN(C)C)Cc2ccccc2)C1 [compound 121] | 101
CC(C)COC(=O)N1CCc2c(cccc2NCC(=O)N(CCN(C)C)Cc2ccccc2)C1 [compound 122] | 337
CN(C)CCN(Cc1ccccc1)C(=O)CNc1cccc2c1CCN(Cc1ccccc1)C2 [compound 123] | 120
CN(C)CCN(Cc1ccccc1)C(=O)CNc1cccc2c1CCN(C(=O)c1ccccc1)C2 [compound 125] | 240
CN(C)CCN(Cc1ccccc1)C(=O)CNc1cccc2c1CCN(CCc1ccccc1)C2 [compound 126] | 249
CN(C)CCN(Cc1ccccc1)C(=O)CNc1cccc2c1CCN(C(=O)OCC(C)(C)C)C2 [compound 127] | 395
CN(C)CCN(Cc1ccccc1)C(=O)CNc1cccc2c1CCN(C(=O)CC1CCCCC1)C2 [compound 129] | 449
CN(C)CCN(Cc1ccccc1)C(=O)CNc1cccc2c1CCN(C(=O)Oc1ccccc1)C2 [compound 130] | 390
CN(C)CCN(Cc1ccccc1)C(=O)CNc1cccc2c1CCN(C(=O)OCc1ccccc1)C2 [compound 131] | 450
CCN(Cc1ccccc1Cl)C(=O)/C=C/c1cccc2c1CCN(CC1CC1)C2 [compound 139] | 55
Cc1cccc(CN(C(=O)/C=C/c2cccc3c2CCN(CC2CC2)C3)C2CC2)c1C [compound 141] | 98
